The record followed here is US11635379B2, “Portable wide field fluorimeter systems” (priority 2017, dated 2023).

SMILES strings stand for the structures.

In one experiment the target is T1, S. Aureus (Staphylococcus aureus, UniProt P00807).
T1 construct: endogenous in cells
Description: Antibiotic susceptibility testing by β-LEAF fluorescence in microfluidic device with portable fluorimeter. In kind it is cell-based. The procedure: In another experiment, fluorometric assay techniques were examined using a microfluidic device (e.g., the microfluidic device 102) and fluorescence images were collected using a portable wide field fluorimeter similar to the system 700 depicted in FIGS. 7A-D. In this experiment, the detection reagent was a 20 μM β-LEAF Bodipy-FL probe solution (2×stock) that was prepared in 40% DMSO in PBS, and an antibiotic solution was a […] penicillin G solution (4×stock) that was prepared by dissolving the antibiotic powder in PBS. Two different types of liquid samples were prepared. A first liquid sample (which included the antibiotic solution) was prepared by combining the 25 μl bacterial suspension, 50 μl of probe 2×stock solution, and 25 μl antibiotic 4×stock solution. […]
Data acquisition involved collecting a fluorescent reading by the camera every 3 seconds. […] Fluorescence was measured in a machine specific standard unit. […]
To analyze image data, a region of interest was selected over an area of bacteria capture corresponding to a chamber of the microfluidic device was the liquid samples were collected. Fluorescence data was extracted in a green channel. […]
The experiment was performed using two liquid samples that were introduced into a microfluidic device and monitored for fluorescence over a 10-minute time period. […]

For experiment [1], the target named is T2, β-lactamase producing strain (B-lac(+)) (Staphylococcus aureus, UniProt P00807).
T2 construct: a known β-lactamase producing strain (B-lac(+)); host or cells: S. aureus ATCC control strain, β-lactamase producing (B-lac(+))
It is filed as cell-based. The settings on record: B-lac(+) S. aureus, β-LEAF with vs without cefazolin, 60-minute time course, 37° C.
Description: Consequently, the fluorophores are unable to emit fluorescence due to ground state interactions between each other. However, after probe cleavage by β-lactamase, the fluorophores diffuse away from each other, are no longer quenched, and thus regain their fluorescent properties. […] If the assay is repeated in the presence of a cleavable antibiotic that competes with the β-LEAF for β-lactamase cleavage, the rate of β-LEAF cleavage will decrease, resulting in no fluorescence increase.
To encapsulate the data, the suppression of fluorescence change (ΔFs) is defined as (ΔFBL−ΔFBL+antibiotic)/ΔFBL, where ΔFBL and ΔFBL+antibiotic is the fluorescence rate of change of the β-lactamase only and β-lactamase and antibiotic conditions, respectively. […]
Time course assays were carried out with each of the two liquid samples by monitoring β-LEAF cleavage by measuring fluorescence for 60 minutes, at 1 minute intervals using a Spectramax® M5 Plate Reader (Molecular Devices). […] Fluorescence was measured in a machine specific standard unit.
In this example, β-LEAF assays were performed with the two ATCC S. aureus control bacterial strains, a known β-lactamase producing strain (B-lac(+)) and a known β-lactamase non-producing strain (B-lac(−)). […] Four test solutions were prepared and examined for time-course fluorescence intensity changes: […]

T1 sequence (P00807 25-281): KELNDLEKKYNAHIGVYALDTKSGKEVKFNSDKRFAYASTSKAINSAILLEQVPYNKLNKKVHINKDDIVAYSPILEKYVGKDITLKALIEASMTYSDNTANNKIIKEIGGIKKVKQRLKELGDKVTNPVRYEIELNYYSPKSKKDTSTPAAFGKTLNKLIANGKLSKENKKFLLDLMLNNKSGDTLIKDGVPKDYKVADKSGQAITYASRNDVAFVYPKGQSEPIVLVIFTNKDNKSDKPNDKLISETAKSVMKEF
T2 sequence (P00807 25-281): as above

Take `CC1(C)S[C@@H]2[C@H](NC(=O)Cc3ccccc3)C(=O)N2[C@H]1C(=O)O` [Penicillin G]: the “change of fluorescence intensity over the ten-minute time period” value on S. Aureus (50 μl sample, 2.5e6 CFU/ml S. Aureus, fluorescent probe plus Penicillin G) was “did not change significantly”. For the same molecule, on S. Aureus (S. Aureus, competition with fluorescent probe), the “susceptibility of the antibiotic to cleavage by the bacteria” value is reported as “vulnerable to cleaving”.

On to `Cc1nnc(SCC2=C(C(=O)O)N3C(=O)[C@@H](NC(=O)Cn4cnnn4)[C@H]3SC2)s1` [cefazolin], for which the “suppression of fluorescence change (ΔFs)” value in experiment [1] is reported as approximately 1.
